The test system of this test is L1210 leukemia ip in BDF1 mice, survival T/C. Nature of the test: NCI In Vivo Anticancer Drug Screen. Data for tumor model L1210 Leukemia (intraperitoneal) in B6D2F1 (BDF1) mice. Conditions: endpoint: mean survival time, higher = longer survival. The method, boiled down:
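Tumor was transplanted into mice, which were then dosed with test compound or vehicle alone. Survival was recorded for each group, and the treated figure was expressed relative to the control figure.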

Where [1] appears, read: dose: 100.0 mg/kg/injection, schedule: Q01DX009 (ip), vehicle: saline with Tween-80.
Where [2] appears, read: dose: 200.0 mg/kg/injection, schedule: Q01DX009 (ip), vehicle: saline with Tween-80.
Where [3] appears, read: dose: 400.0 mg/kg/injection, schedule: Q01DX009 (ip), vehicle: saline with Tween-80.
[4] abbreviates: dose: 100.0 mg/kg/injection, schedule: Q01DX009 (ip), vehicle: Klucel (hydroxypropylcellulose) (HPC).
[5] abbreviates: dose: 100.0 mg/kg/injection, schedule: Q04DX003 (ip), vehicle: Klucel (hydroxypropylcellulose) (HPC).
Setting [6] is: dose: 200.0 mg/kg/injection, schedule: Q01DX009 (ip), vehicle: Klucel (hydroxypropylcellulose) (HPC).
Setting [7] is: dose: 200.0 mg/kg/injection, schedule: Q04DX003 (ip), vehicle: Klucel (hydroxypropylcellulose) (HPC).
Setting [8] is: dose: 400.0 mg/kg/injection, schedule: Q01DX009 (ip), vehicle: Klucel (hydroxypropylcellulose) (HPC).
The mark [9] stands for this setting: dose: 400.0 mg/kg/injection, schedule: Q04DX003 (ip), vehicle: Klucel (hydroxypropylcellulose) (HPC).
[10] abbreviates: dose: 50.0 mg/kg/injection, schedule: Q01DX009 (ip), vehicle: saline.
Where [11] appears, read: dose: 100.0 mg/kg/injection, schedule: Q01DX001 (ip), vehicle: carboxymethylcellulose (CMC).
[12] abbreviates: dose: 200.0 mg/kg/injection, schedule: Q01DX001 (ip), vehicle: carboxymethylcellulose (CMC).
Setting [13] is: dose: 200.0 mg/kg/injection, schedule: Q04DX003 (ip), vehicle: saline.
The mark [14] stands for this setting: dose: 400.0 mg/kg/injection, schedule: Q01DX001 (ip), vehicle: carboxymethylcellulose (CMC).
The mark [15] stands for this setting: dose: 100.0 mg/kg/injection, schedule: Q01DX001 (ip), vehicle: saline.
Where [16] appears, read: dose: 100.0 mg/kg/injection, schedule: Q04DX003 (ip), vehicle: saline.
[17] abbreviates: dose: 200.0 mg/kg/injection, schedule: Q01DX001 (ip), vehicle: saline.
Setting [18] is: dose: 400.0 mg/kg/injection, schedule: Q01DX001 (ip), vehicle: saline.
[19] abbreviates: dose: 400.0 mg/kg/injection, schedule: Q04DX003 (ip), vehicle: saline.
Setting [20] is: dose: 50.0 mg/kg/injection, schedule: Q04DX003 (ip), vehicle: saline.

Molecules are shown by their SMILES. Inconclusive results and toxic doses are left out.

Our source for the T/C values is PubChem BioAssay AID248 (DTP/NCI, 2004).

With `OC1CCC(O)C2CCC1S2` (stereo not given), the T/C was 87 % of control (dose: 100.0 mg/kg/injection, schedule: Q01DX001 (ip), vehicle: steriod suspending solution); 92 % of control (dose: 200.0 mg/kg/injection, schedule: Q01DX001 (ip), vehicle: steriod suspending solution); 103 % of control (dose: 400.0 mg/kg/injection, schedule: Q01DX001 (ip), vehicle: steriod suspending solution).
In the case of `COc1cc(/C=N\N=C\c2cc(OC)c(OC)c(OC)c2)cc(OC)c1OC`, the T/C was 96 % of control under setting [1]; 97 % of control (dose: 100.0 mg/kg/injection, schedule: Q04DX003 (ip), vehicle: saline with Tween-80); 96 % of control under setting [2]; 92 % of control (dose: 200.0 mg/kg/injection, schedule: Q04DX003 (ip), vehicle: saline with Tween-80); 92 % of control under setting [3]; 92 % of control (dose: 400.0 mg/kg/injection, schedule: Q04DX003 (ip), vehicle: saline with Tween-80).
With `Cc1ccc([N+](=O)[O-])c(C)c1`, the T/C under setting [4] is 92 % of control; the T/C under setting [5] was 105 % of control; the T/C under setting [6] is 96 % of control; the T/C under setting [7] is 104 % of control; the T/C under setting [8] is 102 % of control; the T/C under setting [9] was 102 % of control.
`O=C(NCCCO)C1C(c2ccccc2)C1c1ccccc1` (stereo not given): the T/C was 108 % of control (dose: 100.0 mg/kg/injection, schedule: Q04DX002 (ip), vehicle: saline with Tween-80); 102 % of control (dose: 200.0 mg/kg/injection, schedule: Q04DX002 (ip), vehicle: saline with Tween-80); 102 % of control (dose: 400.0 mg/kg/injection, schedule: Q04DX002 (ip), vehicle: saline with Tween-80).
Take `CCCN(CCC)C(=O)OCC`: the T/C was 97 % of control under setting [1] and 100 % of control under setting [2].
In the case of `CCCCCCC(=O)OCCN1CCN(CC/C=C2\c3ccccc3Sc3ccc(C(F)(F)F)cc32)CC1`, the T/C is, setting by setting: (dose: 50.0 mg/kg/injection, schedule: Q01DX001 (ip), vehicle: carboxymethylcellulose (CMC)) 94 % of control; under setting [10], 123 % of control; under setting [11], 92 % of control; (dose: 100.0 mg/kg/injection, schedule: Q01DX009 (ip), vehicle: saline) 108 % of control; (dose: 132.0 mg/kg/injection, schedule: Q04DX003 (ip), vehicle: saline) 103 % of control; under setting [12], 94 % of control. Also, the T/C reads like this: under setting [13], 110 % of control; under setting [14], 94 % of control.
For the molecule `CN(C)C1C(=O)C(C(=O)NCNC(CCS(C)=O)C(=O)O)=C(O)C2(O)C(=O)C3=C(O)c4c(O)cccc4C(C)(O)C3CC12` (stereo not given), the T/C under setting [15] was 91 % of control; the T/C under setting [16] is 95 % of control; the T/C under setting [17] is 91 % of control; the T/C under setting [13] was 92 % of control; the T/C under setting [18] is 91 % of control; the T/C under setting [19] was 87 % of control.
Regarding `CCCCNC(=O)C1C=C2c3cccc4[nH]cc(c34)CC2N(C)C1` (stereo not given), the T/C is 102 % of control (dose: 12.5 mg/kg/injection, schedule: Q01DX009 (ip), vehicle: Klucel (hydroxypropylcellulose) (HPC)); 104 % of control (dose: 25.0 mg/kg/injection, schedule: Q01DX009 (ip), vehicle: Klucel (hydroxypropylcellulose) (HPC)); 93 % of control (dose: 25.0 mg/kg/injection, schedule: Q04DX003 (ip), vehicle: Klucel (hydroxypropylcellulose) (HPC)); 118 % of control (dose: 50.0 mg/kg/injection, schedule: Q01DX009 (ip), vehicle: Klucel (hydroxypropylcellulose) (HPC)); 93 % of control (dose: 50.0 mg/kg/injection, schedule: Q04DX003 (ip), vehicle: Klucel (hydroxypropylcellulose) (HPC)); 104 % of control under setting [5]. Also, the T/C under setting [7] was 95 % of control.
As for `CN(C)c1ccc(NC2=NCCO2)cc1`, the T/C reads like this: (dose: 12.5 mg/kg/injection, schedule: Q04DX003 (ip), vehicle: saline) 95 % of control; (dose: 25.0 mg/kg/injection, schedule: Q01DX009 (ip), vehicle: saline) 104 % of control; (dose: 25.0 mg/kg/injection, schedule: Q04DX003 (ip), vehicle: saline) 102 % of control; under setting [10], 95 % of control; under setting [20], 98 % of control; under setting [16], 97 % of control. Further, the T/C under setting [13] was 87 % of control.
For the molecule `COc1cccc(OC)c1OC(=O)Nc1ccccc1F`, the T/C runs as follows: under setting [4], 105 % of control; under setting [6], 106 % of control; under setting [8], 106 % of control.
`CCCCOc1c(Cl)c(Cl)c(O)c(Cl)c1Cl`: the T/C by setting is: (dose: 50.0 mg/kg/injection, schedule: Q01DX009 (ip), vehicle: acetone) 101 % of control; under setting [20], 97 % of control; under setting [15], 93 % of control; (dose: 100.0 mg/kg/injection, schedule: Q01DX009 (ip), vehicle: acetone) 93 % of control; under setting [16], 94 % of control; under setting [17], 88 % of control. For the same molecule, the T/C under setting [13] is 87 % of control.
`CCN(CC)CCNc1nc(N)c(C#N)c(C#N)c1C#N`: the T/C reads like this: under setting [11], 96 % of control; under setting [12], 94 % of control; under setting [14], 96 % of control.
For the molecule `O=C1C(=O)c2ccccc2C=C1Br`, the T/C under setting [5] is 94 % of control and the T/C under setting [7] is 95 % of control.
Consider `COc1ccc(-n2c(=O)c(N=Nc3ccc(Cl)cc3)c(O)n(-c3ccc(I)cc3)c2=S)cc1`, for which the T/C (dose: 37.5 mg/kg/injection, schedule: Q01DX001 (ip), vehicle: Klucel (hydroxypropylcellulose) (HPC)) was 97 % of control; the T/C (dose: 75.0 mg/kg/injection, schedule: Q01DX001 (ip), vehicle: Klucel (hydroxypropylcellulose) (HPC)) is 90 % of control; the T/C (dose: 150.0 mg/kg/injection, schedule: Q01DX001 (ip), vehicle: Klucel (hydroxypropylcellulose) (HPC)) is 97 % of control.
With `c1ccc(CN=C(c2ccccc2)c2ccccc2)cc1`, the T/C is, setting by setting: under setting [4], 101 % of control; under setting [5], 104 % of control; under setting [6], 95 % of control; under setting [7], 96 % of control; under setting [8], 106 % of control; under setting [9], 98 % of control.
`O=C(O)c1cc(Cl)ccc1O`: the T/C was 100 % of control (dose: 100.0 mg/kg/injection, schedule: Q04DX002 (ip), vehicle: other) and 103 % of control (dose: 200.0 mg/kg/injection, schedule: Q04DX002 (ip), vehicle: other).
With `CC(C)(CO)N=Cc1cccc(Br)c1`, the T/C is, setting by setting: under setting [15], 96 % of control; under setting [17], 98 % of control; under setting [18], 98 % of control.
As to `CC1CN=C(c2ccc(NC(=O)NCCCNC(=O)Nc3ccc(C4=NCC(C)N4)cc3)cc2)N1` (stereo not given), where the note is “dose: 30.0 mg/kg/injection, schedule: Q01DX015 (ip), vehicle: methylcellulose (MC)”, the T/C was 150 % of control.
As to `CCOC(=O)CNC(=O)Oc1ccc(NC(C)=O)cc1`, the T/C is 100 % of control under setting [1], 95 % of control under setting [2] and 108 % of control under setting [3].
Consider `c1ccc(C2=NN=C(c3ccccc3)CCC2)cc1`, for which the T/C was 95 % of control (dose: 100.0 mg/kg/injection, schedule: Q04DX003 (ip), vehicle: acetone); 86 % of control (dose: 200.0 mg/kg/injection, schedule: Q04DX003 (ip), vehicle: acetone); 98 % of control (dose: 400.0 mg/kg/injection, schedule: Q04DX003 (ip), vehicle: acetone).
As to `N#C/C(N)=C(\C#N)N=C1CCCCC1=O`, the T/C runs as follows: (dose: 100.0 mg/kg/injection, schedule: Q04DX002 (ip), vehicle: Klucel (hydroxypropylcellulose) (HPC)) 94 % of control; (dose: 200.0 mg/kg/injection, schedule: Q04DX002 (ip), vehicle: Klucel (hydroxypropylcellulose) (HPC)) 91 % of control; (dose: 400.0 mg/kg/injection, schedule: Q04DX002 (ip), vehicle: Klucel (hydroxypropylcellulose) (HPC)) 94 % of control.
Turning to `BrC1=C(Br)C2(Br)C(c3ccccc3)CC1(Br)C2(Br)Br` (stereo not given), the T/C is, setting by setting: under setting [16], 92 % of control; under setting [13], 106 % of control; under setting [19], 92 % of control.
